# Key:
# Botrytis cinerea = assay: In vivo preventive test on Botrytis cinerea (grey mould); conditions: 500 ppm of active ingredient, preventive spray on gherkin or cabbage, evaluated 4 to 5 days after inoculation, read-out: efficacy
# Alternaria alternata = Alternaria alternata in vitro cell test; assay type: cell-based; conditions: 120 h, 20 ppm of active ingredient, liquid culture, 5 days incubation, read-out: efficacy (inhibition of fungal growth)
# [1] = Measurement of LogP values by HPLC on reversed phase columns (EEC directive 79/831 Annex V.A8), methods [a], [b], [c]; assay type: physicochemical; conditions: HPLC on reversed phase column, method [a]; read-out: Log P
# How it was run: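 Log P determined by reversed-phase HPLC following EEC directive 79/831 Annex V.A8. Multiple values within one method are listed joined by "+". Lambda-max taken from UV spectra over 200–400 nm at chromatographic peak maxima.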
# Alternaria brassicae = assay: In vivo preventive test on Alternaria brassicae (leaf spot on radish or cabbage); conditions: 144 h, 500 ppm of active ingredient, preventive spray on radish or cabbage, evaluated 6 days after inoculation, read-out: efficacy
# [2] = tested on: Colletotrichum lindemuthianum; assay: Colletotrichum lindemuthianum in vitro cell test; assay type: cell-based; conditions: 144 h, 20 ppm of active ingredient, liquid culture, 6 days incubation, read-out: efficacy (inhibition of fungal growth)
# Sphaerotheca fuliginea = assay: In vivo preventive test on Sphaerotheca fuliginea (powdery mildew on cucurbits); conditions: Podosphaera fuliginea, 192 h; 500 ppm of active ingredient; preventive spray on gherkin; evaluated 8 days after inoculation; read-out: efficacy
# Septoria tritici = Septoria tritici in vitro cell test; assay type: cell-based; conditions: Zymoseptoria tritici, 168 h; 20 ppm of active ingredient; liquid culture, 7 days incubation; read-out: efficacy (inhibition of fungal growth)
# Protocol: Example: Septoria tritici In Vitro Cell Test • Solvent: DMSO • Culture medium: 14.6 g anhydrous D-glucose (VWR), 7.1 g Bacteriological Peptone (Oxoid), • 1.4 g granulated Yeast Extract (Merck), QSP 1 liter • Inoculum: spore suspension Fungicides were solubilized in DMSO and the solution used to prepare the required range of concentrations. The final concentration of DMSO used in the assay was ≤1%. A spore suspension of Septoria tritici was prepared and diluted to the desired spore density. Fungicides were evaluated for their ability to inhibit spore germination and mycelium growth in liquid culture assay. The compounds were added in the desired concentration to the culture medium with spores. After 7 days incubation, fungi-toxicity of compounds was determined by spectrometric measurement of mycelium growth. Inhibition of fungal growth was determined by comparing the absorbance values in wells containing the fungicides with the absorbance in control wells without fungicides.
smiles,measurement,setting,value
"COc1cccc(Oc2nnc(Cl)cc2C2=NOCC(Cc3ccc(C)cc3C)N2)c1F (racemic) [I-005, rac-3-[6-chloro-3-(2-fluoro-3-methoxy-phenoxy)pyridazin-4-yl]-5-[(2,4-dimethylphenyl)methyl]-5,6-dihydro-4H-1,2,4-oxadiazine]",pest or weed control at 500 ppm,Botrytis cinerea,90 to 100%
same,inhibition at 20 ppm,Alternaria alternata,90 to 100%
same,chromatographic logP,[1],3.91
same,pest or weed control at 500 ppm,Alternaria brassicae,90 to 100%
same,inhibition at 20 ppm,[2],90 to 100%
same,pest or weed control at 500 ppm,Sphaerotheca fuliginea,90 to 100%
same,inhibition at 20 ppm,Septoria tritici,70 to 79%
"C=C(OCC)c1cc(C2=NOCC(Cc3ccc(C)cc3C)N2)c(Oc2cccc(C(F)(F)F)c2)nn1 (racemic) [I-009, rac-5-[(2,4-dimethylphenyl)methyl]-3-[6-(1-ethoxyvinyl)-3-[3-(trifluoro-methyl)phenoxy]pyridazin-4-yl]-5,6-dihydro-4H-1,2,4-oxadiazine]",pest or weed control at 500 ppm,Botrytis cinerea,90 to 100%
same,inhibition at 20 ppm,Alternaria alternata,90 to 100%
same,chromatographic logP,[1],4.98
same,pest or weed control at 500 ppm,Alternaria brassicae,90 to 100%
same,inhibition at 20 ppm,[2],90 to 100%
same,pest or weed control at 500 ppm,Sphaerotheca fuliginea,90 to 100%
same,inhibition at 20 ppm,Septoria tritici,90 to 100%
"FC(F)(F)c1cccc(Oc2nnc(Cl)cc2C2=NOCC(Cc3ccc(Br)cc3Cl)N2)c1 (racemic) [I-016, rac-5-[(4-bromo-2-chloro-phenyl)methyl]-3-[6-chloro-3-[3-(trifluoromethyl)phenoxy]pyridazin-4-yl]-5,6-dihydro-4H-1,2,4-oxadiazine]",pest or weed control at 500 ppm,Botrytis cinerea,90 to 100%
same,inhibition at 20 ppm,Alternaria alternata,90 to 100%
same,chromatographic logP,[1],4.61
same,pest or weed control at 500 ppm,Alternaria brassicae,90 to 100%
same,inhibition at 20 ppm,[2],90 to 100%
same,pest or weed control at 500 ppm,Sphaerotheca fuliginea,90 to 100%
same,inhibition at 20 ppm,Septoria tritici,90 to 100%
"COCCOc1c(Cl)nnc(Oc2cccc(C(F)(F)F)c2)c1C1=NOCC(Cc2ccc(C)cc2C)N1 (racemic) [I-072, rac-3-[6-chloro-5-(2-methoxyethoxy)-3-[3-(trifluoro-methyl)phenoxy]pyridazin-4-yl]-5-[(2,4-dimethylphenyl)methyl]-5,6-dihydro-4H-1,2,4-oxadiazine]",pest or weed control at 500 ppm,Botrytis cinerea,90 to 100%
same,inhibition at 20 ppm,Alternaria alternata,90 to 100%
same,chromatographic logP,[1],4.18
same,pest or weed control at 500 ppm,Alternaria brassicae,90 to 100%
same,inhibition at 20 ppm,[2],90 to 100%
same,pest or weed control at 500 ppm,Sphaerotheca fuliginea,90 to 100%
same,inhibition at 20 ppm,Septoria tritici,80 to 89%

# From patent publication US12501900B2, “Heterocyclyl pyridazine as fungicidal compounds” (Bayer Aktiengesellschaft, priority 2018, dated 2025)
